Like-named read-outs stand apart in the source and are kept apart here. Values belong to the substance of their own block, whether it stands above or below them. Ends that are not written are not given here.
Assays:
[1] = systemically and locally induced sepsis models; Zisman 1997, Bone-Larson 2000; cited from earlier work
[2] = system: human umbilical vein endothelial cells HUVEC-C; format: cell-based
From the text: Microarray Analysis. […] Total RNA was isolated followed by reverse transcription. Purified double stranded cDNA was in vitro transcribed in the presence of biotinylated dUTP and dCTP, fragmented cRNA was hybridized to the HG-U95Av2 array (Affymetrix, Santa Clara, Calif.), followed by staining with streptavidin-phycoerythrin. Arrays were scanned and analyzed using GeneChip3.1 software. […] An average fold-induction for the three independent experiments was obtained by calculating the means of the logarithm of the individual fold-increases for each agonist.

[3] = system: primary HUVEC; experiment: TaqMan real-time RT-PCR of gene induction in primary HUVEC; format: cell-based, human; settings: primary endothelial cells, quantitative PCR, FIG. 3A
Procedure: TaqMan Real Time PCR. For TaqMan (Applied Biosystems) real-time RT-PCR 4 μg total cellular RNA from stimulated primary HUVEC was reverse transcribed followed by RNAse treatment using the Superscript Kit (Invitrogen). TaqMan probes were custom designed for genes of interests. All samples were normalized with human GAPDH probes and primers obtained from Applied Biosystems.

[4] = HUVEC-C, 90 min, genes represented in FIG. 2 A-C
[5] = HUVEC-C, 90 min, higher variability, PAR1 enhanced (<1.3 fold with PAR2 agonist)
[6] = HUVEC-C, 90 min, higher variability, PAR2 enhanced (<1.3 fold with PAR1 agonist)
[7] = HUVEC-C, 90 min, higher variability, genes not induced by APC (<1.3 fold with APC)

Substance: MCP-1: monocyte chemoattractant protein-1, chemokine administered in cited sepsis models
Effect of administration in sepsis models [1]: protective

Average fold induction, AKAP12 U81607 A-KINASE ANCHOR PROTEIN 12, GRAVIN [2]: 1.39 fold | Average fold induction, BCL2A1 U27467 BCL2 RELATED PROTEIN A1, BFL-1 [2]: 2.04 fold | Average fold induction, DUSP1 X68277 DUAL-SPECIFICITY PHOSPHATASE 1 [2]: 2.05 fold | Average fold induction, DUSP5 U15932 DUAL-SPECIFICITY PHOSPHATASE 5 [2]: 2.93 fold | Average fold induction, IER3 S81914 IMMEDIATE-EARLY RESPONSE 3 [2]: 1.30 fold | Average fold induction, NAB1 AF045451 NGFIA-BINDING PROTEIN [2]: 1.49 fold | Average fold induction, NFKBIA M69043 NUCLEAR FACTOR OF KAPPA LIGHT CHAIN GENE ENHANCER IN B CELLS INHIBITOR, ALPHA [2]: 1.38 fold | Average fold induction, ZFP36 M92843 ZINC FINGER PROTEIN 36, TRISTETRAPROLIN (TTP) [2]: 1.98 fold
Substance: TFLLRNPNDK [PAR1]
Average fold induction, BIRC3 U45878 HUMAN INHIBITOR OF APOPTOSIS PROTEIN (IAP) 1 [2]: 2.39 fold | Average fold induction, GADD45B AF078077 GROWTH ARREST- AND DNA DAMAGE-INDUCIBLE GENE GADD45, BETA [2]: 1.26 fold | Average fold induction, TNFAIP3 M59465 TUMOR NECROSIS FACTOR-ALPHA-INDUCED PROTEIN 3, A20 [2]: 1.39 fold | Average Induction, A1288757 qm11h01.x1 Homo sapiens cDNA [2, 4]: 1.8 fold | Average Induction, A1670788 tz10c02.x1 Homo sapiens cDNA [2, 4]: 1.5 fold | Average Induction, A1985272 ws06b05.x1 Homo sapiens cDNA [2, 4]: 1.3 fold | Average Induction, A8022718 Homo sapiens m.RNA for DEPP (decidual protein induced by progesterone) [2, 4]: 1.3 fold | Average Induction, AB004066 Homo sapiens mRNA for DEC1 [2, 4]: 1.5 fold | Average Induction, AB014569 Homo sapiens mRNA for K1AA0669 protein [2, 4]: 1.3 fold | Average Induction, AF017786 Homo sapiens phosphatidic acid phosphohydrolase homolog (Dri42) [2, 4]: 1.6 fold | Average Induction, AF022375 Homo sapiens vascular endothelial growth factor mRNA [2, 4]: 1.5 fold | Average Induction, AF039843 Homo sapiens Sprouty 2 (SPRY2) mRNA [2, 4]: 1.6 fold | Average Induction, AF045451 Homo sapiens transcriptional regulatory protein p54 [2, 4]: 1.5 fold | Average Induction, AF050110 Homo sapiens TGFb inducible early protein and early growth response protein alpha genes [2, 4]: 1.7 fold | Average Induction, AF054182 Homo sapiens mitochondrial processing peptidase beta-subunit mRNA [2, 4]: 1.8 fold | Average Induction, AF068197 Homo sapiens BCE-1 mRNA [2, 4]: 1.5 fold | Average Induction, AF078077 Homo sapiens growth arrest and DNA-damage-inducible protein GADD45beta [2, 4]: 1.3 fold | Average Induction, AJ005821 Homo sapiens mRNA for X-like 1 protein [2, 4]: 2.4 fold | Average Induction, AL023584 Human DNA sequence from clone 67K17 on chromosome 6q24.1-24.3. [2, 4]: 1.8 fold | Average Induction, AL031432 Human DNA sequence from clone 465N24 on chromosome 1p35.1-36.13. [2, 4]: 1.9 fold | Average Induction, AL050078 Homo sapiens mRNA; cDNA DKFZp566G0746 [2, 4]: 1.6 fold | Average Induction, AL096858 Novel human gene mapping to chomosome 1 [2, 4]: 1.3 fold | Average Induction, Cluster Incl M22489 Human bone morphogenetic protein 2A (BMP-2A) [2, 4]: 2.4 fold | Average Induction, Cluster Incl U12767 Human mitogen induced nuclear orphan receptor (MINOR) [2, 4]: 2.4 fold | Average Induction, D15050 Human mRNA for transcription factor AREB6 [2, 4]: 2.1 fold | Average Induction, D50917 Human mRNA for KIAA0127 gene [2, 4]: 1.4 fold | Average Induction, D78579 Homo sapiens mRNA for neuron derived orphan receptor [2, 4]: 2.6 fold | Average Induction, D86181 Homo sapiens DNA for galactocerebrosidase [2, 4]: 1.9 fold | Average Induction, Guanine Nucleotide Exchange Factor 2 [2, 4]: 1.4 fold | Average Induction, J02931 Human placental tissue factor (two forms) mRNA [2, 4]: 3.0 fold | Average Induction, J04076 Human early growth response 2 protein (EGR2) mRNA [2, 4]: 2.0 fold | Average Induction, J04111 Human c-jun proto oncogene (JUN) [2, 4]: 1.7 fold | Average Induction, L05072 Homo sapiens interferon regulatory factor 1 gene [2, 4]: 1.9 fold | Average Induction, L19871 Human activating transcription factor 3 (ATF3) [2, 4]: 2.5 fold | Average Induction, L43821 Homo sapiens enhancer of filamentation (HEF1) mRNA [2, 4]: 1.4 fold | Average Induction, M22489/FEATURE Human bone morphogenetic protein 2A (BMP-2A) [2, 4]: 2.3 fold | Average Induction, M26683 Human interferon gamma treatment inducible mRNA [2, 4]: 1.6 fold | Average Induction, M28211 Homo sapiens GTP-binding protein (RAB4) mRNA [2, 4]: 2.0 fold | Average Induction, M28225 Human JE gene encoding a monocyte secretory protein [= MCP-1] [2, 4]: 2.1 fold | Average Induction, M29039 Human transactivator (jun-B) gene [2, 4]: 2.8 fold | Average Induction, M30474 Human kidney gamma-glutamyl transpeptidase type II mRNA [2, 4]: 2.7 fold | Average Induction, M31516 Human decay-accelerating factor mRNA [2, 4]: 1.7 fold | Average Induction, M36820 Human cytokine (GRO-beta) mRNA [2, 4]: 2.1 fold | Average Induction, M59465 Human tumor necrosis factor alpha inducible protein A20 mRNA [2, 4]: 1.4 fold | Average Induction, M60278 Human heparin-binding EGF-like growth factor mRNA [2, 4]: 3.6 fold | Average Induction, M60721 Human homeobox gene [2, 4]: 2.8 fold | Average Induction, M69043 Homo sapiens MAD-3 mRNA encoding 1kB-like activity [2, 4]: 1.4 fold | Average Induction, M92843 H.sapiens zinc finger transcriptional regulator mRNA [2, 4]: 2.0 fold | Average Induction, S81439 EGR alpha=early growth response gene alpha [2, 4]: 1.8 fold | Average Induction, S81914 IEX-1=radiation-inducible immediate-early gene [2, 4]: 1.3 fold | Average Induction, U04636 Human cyclooxygenase-2 (hCox-2) gene [2, 4]: 1.3 fold | Average Induction, U07802 Human Tis1 1d gene [2, 4]: 1.5 fold | Average Induction, U08015 Human NF-ATc mRNA [2, 4]: 1.4 fold | Average Induction, U12767/FEATURE Human mitogen induced nuclear orphan receptor (MINOR) [2, 4]: 4.9 fold | Average Induction, U15932 Human dual-specificity protein phosphatase [2, 4]: 2.9 fold | Average Induction, U25997 Homo sapiens stanniocalcin precursor (STC) mRNA [2, 4]: 1.6 fold | Average Induction, U43142 Human vascular endothelial growth factor related protein VRP [2, 4]: 1.4 fold | Average Induction, U59863 Human TRAF-interacting protein I-TRAF mRNA [2, 4]: 1.3 fold | Average Induction, U75697 Human transcription regulator RPD3-2B mRNA [2, 4]: 2.7 fold | Average Induction, U79259 Human clone 23945 mRNA [2, 4]: 1.5 fold | Average Induction, U81607 Homo sapiens gravin mRNA [2, 4]: 1.4 fold | Average Induction, W27545 32c4 Homo sapiens cDNA [2, 4]: 1.2 fold | Average Induction, X51345 Human jun-B mRNA for JUN-B protein [2, 4]: 1.8 fold | Average Induction, X63741 H.sapiens pilot mRNA [2, 4]: 1.9 fold | Average Induction, X68277 H.sapiens CL 100 mRNA for protein tyrosine phosphatase [2, 4]: 2.1 fold | Average Induction, X75918 H.sapiens mRNA for NOT [2, 4]: 2.3 fold | Average Induction, X89066 H.sapiens mRNA for TRPC1 protein [2, 4]: 2.6 fold | Average Induction, X94216 H.sapiens mRNA for VEGF-C protein [2, 4]: 1.4 fold | Average Induction, Y00630 Human mRNA for Arg-Serpin (plasminogen activator-inhibitor 2, PAI-2) [2, 4]: 2.2 fold | Average Induction, Z25821 H.sapiens gene for mitochondrial dodecenoyl-CoA delta-isomerase [2, 4]: 1.1 fold | Average Induction, Z48054 H.sapiens mRNA for peroxisomal targeting signal 1 (SKL type) receptor [2, 4]: 2.0 fold | Average Induction, L13740 Human TR3 orphan receptor mRNA ([2]; HUVEC-C, 90 min, genes represented in FIG. 2 A-C, first probe set): 4.8 fold | Average Induction, L13740 Human TR3 orphan receptor mRNA ([2]; HUVEC-C, 90 min, genes represented in FIG. 2 A-C, second probe set): 4.7 fold | Average Induction, A1186701 qe82d12.x1 Homo sapiens cDNA [2, 5]: 1.9 fold | Average Induction, A1953789 wx69d10.x1 Homo sapiens cDNA [2, 5]: 1.3 fold | Average Induction, AF024710 Homo sapiens vascular endothelial growth factor (VEGF) [2, 5]: 1.4 fold | Average Induction, AL035297 H.sapiens gene from PAC 747L4 [2, 5]: 1.7 fold | Average Induction, M22299 Human T-plastin polypeptide mRNA [2, 5]: 1.6 fold | Average Induction, U35735 Human RACH1 (RACH1) mRNA [2, 5]: 1.8 fold | Average Induction, U87460 Human putative endothelin receptor type B-like protein mRNA [2, 5]: 1.4 fold | Average Induction, A1038821 ox96d03.x1 Homo sapiens cDNA [2, 6]: 1.2 fold | Average Induction, AC004475 Homo sapiens chromosome 19, cosmid F23858 [2, 6]: 1.2 fold | Average Induction, AL049354 Homo sapiens mRNA; cDNA DKFZp566E183 [2, 6]: 1.1 fold | Average Induction, L38696 Homo sapiens autoantigen p542 mRNA [2, 6]: 1.0 fold | Average Induction, U27655 Human RGP3 mRNA [2, 6]: 1.2 fold | Average Induction, U53831 Homo sapiens interferon regulatory factor 7B [2, 6]: 1.1 fold | Average Induction, U58334 Human Bcl2, p53 binding protein Bbp/53BP2 (BBP/53BP2) mRNA [2, 6]: 1.1 fold | Average Induction, U65093 Human msg1-related gene 1 (mrg1) mRNA [2, 6]: 1.3 fold | Average Induction, W26851 17b12 Homo sapiens cDNA [2, 6]: 1.2 fold | Average Induction, Y13115 Homo sapiens mRNA for serine/threonine protein kinase SAK [2, 6]: 1.2 fold | Average Induction, Z25821 H.sapiens gene for mitochondrial dodecenoyl-CoA delta-isomerase [2, 6]: 1.1 fold | Average Induction, AB028069 Homo sapiens mRNA for activator of S phase Kinase [2, 7]: 2.0 fold | Average Induction, D38537 Human mRNA for protoporphyrinogen oxidase [2, 7]: 1.3 fold | Average Induction, M83667 Human NF-IL6-beta protein [2, 7]: 1.4 fold | Average Induction, U78082 Human RNA polymerase transcriptional regulation mediator (h-MED6) mRNA [2, 7]: 1.9 fold | Average Induction, U85267 Homo sapiens down syndrome candidate region 1 (DSCR1) gene [2, 7]: 1.6 fold | Induction of the MCP-1 transcript (microarray, text) ([2]; endothelial cells, 90 minutes): only induced by the PAR1 agonist | MCP-1 induction, time course [3]: similarly induced

From US20040033517A1, “Compositions and methods relating to endothelial cell signaling using the protease activated receptor (PAR1)” (priority 2002, published 2004)
